Read-outs that look alike come from different tables or passages of the source.
What was measured:
[1] = MTT cell viability assay, NHDF; type: cell-based, human; conditions: human, normal human dermal fibroblasts (NHDF), single concentration of 10 µM, 72 h, mean ± SD; read-out: cell viability percentage in relation with control, NHDF
Method: (§1) Caco-2, MCF-7, PC-3, and NHDF cell lines were obtained from the American Type Culture Collection (ATCC) and maintained in 75 cm^2 culture flasks in a humidified atmosphere at 37 °C with 5% carbon dioxide using a LEEC Culture Safe Precision CO2 Incubator. The culture media was renewed every two to three days. The NHDF cell line was cultured in Roswell Park Memorial Institute (RPMI) medium supplemented with 10% of inactivated fetal bovine serum (FBS), 2 mM of L-glutamine, 10 mM of 4-(2-hydroxyethyl)-1-piperazineethanesulfonic acid (HEPES), 1 mM of sodium pyruvate, and 1% of antibiotic/antimycotic mixture (Ab; 10,000 U/mL of penicillin G, […] of streptomycin, and 25 µg/mL of amphotericin B). The PC-3 cell line was also cultured in RPMI 1640 medium supplemented with 10% inactivated FBS and 1% of an antibiotic mixture (Sp; 10,000 U/mL of penicillin G and […] of streptomycin). The Caco-2 and MCF-7 cell lines were grown in Dulbecco’s Modified Eagle Medium (DMEM). Caco-2 was supplemented with 20% of inactivated FBS and 1% of Sp. On the other hand, the MCF-7 medium was complemented with 10% of inactivated FBS and 1% of Ab. All manipulations were performed in a Labculture Class II A2 Biological Safety Cabinet.
(§2) After the near confluency of cultures, cells were detached with a solution of 0.125 g/L trypsin and 0.02 g/L ethylenediaminetetracetic acid (EDTA), counted using the trypan blue method, resuspended, and seeded in 96-well culture plates (100 µL, 2 × 10^4 cells/mL). Following 48 h of adherence, cells were treated with the test solutions and incubated for 72 h. This incubation, as well as the solution manipulations, were performed in an environment protected from light. After the incubation, the medium was replaced with a fresh incomplete culture medium (without FBS and Ab or Sp) and MTT solution (5 mg/mL in phosphate buffer saline (PBS)). After additional incubation for 4 h, the MTT medium was removed, formazan crystals were dissolved in DMSO, and the optical density of each well was measured at 570 nm using a microplate spectrophotometer Bio-Rad xMark. Untreated cells were used as a negative control and 5-FU as the positive control. The results were expressed as the relative cell proliferation relative to the negative control cells. […] To determine the IC50 values, Caco-2, MCF-7, PC-3, and NHDF cells were exposed to increasing concentrations between 0.001 and 100 μM.

[2] = tested on: normal human dermal fibroblasts (NHDF); assay: MTT cell viability assay, NHDF; type: cell-based; conditions: for IC50: 72 h of incubation, MTT, protected from light; for cell viability percentage in relation with control, NHDF: single concentration of 10 µM, mean ± SD
Method: as §1, §2

[3] = MTT cell viability assay, Caco-2; type: cell-based, human; conditions: human, Caco-2, Caco-2 versus NHDF, 72 h; read-out: SI Caco-2 (selectivity index, cancer versus NHDF)
Method: as §1, §2

[4] = tested on: Caco-2 colorectal adenocarcinoma cell line; assay: MTT cell viability assay, Caco-2; type: cell-based, human; conditions: for IC50: 72 h of incubation, MTT, protected from light; for viability at 10 µM / cell viability percentage in relation with control, Caco-2: single concentration of 10 µM, mean ± SD; for viability at 10 µM / SI Caco-2 (selectivity index, cancer versus NHDF) / cell viability percentage in relation with control, Caco-2: 72 h; for viability at 10 µM: read-out: cell viability percentage in relation with control, Caco-2; for SI Caco-2 (selectivity index, cancer versus NHDF): Caco-2 versus NHDF
Method: as §1, §2

[5] = tested on: MCF-7 breast adenocarcinoma cell line; assay: MTT cell viability assay, MCF-7; type: cell-based, human; conditions: single concentration of 10 µM, 72 h, mean ± SD; for viability at 10 µM: Homo sapiens, read-out: cell viability percentage in relation with control, MCF-7
Method: as §1, §2

[6] = tested on: PC-3 prostate adenocarcinoma cell line; assay: MTT cell viability assay, PC-3; type: cell-based, human
Method: as §1, §2

[7] = Homo sapiens, 72 h, single concentration of 10 µM, 72 h, mean ± SD; read-out: cell viability percentage in relation with control, PC-3
[8] = single concentration of 10 µM, 72 h, mean ± SD

**Q.** For `CCCN1C=CC(=Cc2cc[n+](CCC)c3ccccc23)c2ccccc21.[I-]` [Dye 14, 1-Propyl-4-((1-propylquinolin-4(1H)-ylidene)methyl)quinolin-1-ium iodide], which viability at 72 h, 10 µM [1] is on record?
**A.** 1.99 ± 0.25%

**Q.** What about the IC50 ([2]; Homo sapiens, NHDF, 72 h) of the same compound?
**A.** 990 nM

**Q.** What about the selectivity ratio at 72 h [3] of the same compound?
**A.** 1.5

**Q.** And the IC50 ([4]; Homo sapiens, Caco-2, 72 h)?
**A.** 680 nM

**Q.** What about the viability at 10 µM ([4]; Homo sapiens, Caco-2, 72 h) of the same compound?
**A.** 9.84 ± 0.93%

**Q.** What about the viability at 10 µM ([5]; MCF7, 72 h) of the same compound?
**A.** 22.9 ± 0.68%

**Q.** What about the viability at 10 µM [6, 7] of the same compound?
**A.** 8.03 ± 2.15%

**Q.** And the melting point?
**A.** 229 to 231 °C

**Q.** With `c1ccc2sc(Cc3nc4ccccc4s3)nc2c1` [bisbenzothiazole 1, bis(benzo[d]thiazol-2-yl)methane] as the compound, how does the viability at 72 h, 10 µM [1] read?
**A.** 31 ± 0.57%

**Q.** And the viability at 10 µM ([4]; Homo sapiens, Caco-2, 72 h)?
**A.** 59.6 ± 5.45%

**Q.** And the viability at 10 µM ([5]; MCF7, 72 h)?
**A.** 55.7 ± 4.97%

**Q.** And the viability at 10 µM [6, 7]?
**A.** 53.2 ± 9.68%

**Q.** And the melting point?
**A.** 97 to 98 °C

**Q.** For `CN1C(=Cc2sc3ccccc3[n+]2C)Sc2ccccc21.Cc1ccc(S(=O)(=O)[O-])cc1` [Dye 5, 3-Methyl-2-((3-methylbenzo[d]thiazol-2(3H)-ylidene)methyl)benzo[d]thiazol-3-ium 4-methylbenzenesulfonate], which IC50 ([2]; listed as 5) is on record?
**A.** 680 nM

**Q.** And the “cell viability percentage in relation with control, NHDF” value ([2]; 72 h)?
**A.** 4.42 ± 0.55%

**Q.** And the IC50 ([4]; listed as 5)?
**A.** 280 nM

**Q.** And the “SI Caco-2 (selectivity index, cancer versus NHDF)” value [4]?
**A.** 2.4

**Q.** And the “cell viability percentage in relation with control, Caco-2” value [4]?
**A.** 2.55 ± 0.58%

**Q.** What about the “cell viability percentage in relation with control, MCF-7” value [5] of the same compound?
**A.** 1.55 ± 0.53%

**Q.** What about the “cell viability percentage in relation with control, PC-3” value [6, 8] of the same compound?
**A.** 1 ± 0.18%

**Q.** With `CN1C(=Cc2sc3ccccc3[n+]2C)Sc2ccccc21.[I-]` [Dye 4, 3-Methyl-2-((3-methylbenzo[d]thiazol-2(3H)-ylidene)methyl)benzo[d]thiazol-3-ium iodide] as the compound, how does the IC50 ([2]; listed as 4) read?
**A.** 730 nM

**Q.** And the “cell viability percentage in relation with control, NHDF” value ([2]; 72 h)?
**A.** 3.82 ± 0.21%

**Q.** What about the IC50 ([4]; listed as 4) of the same compound?
**A.** 400 nM

**Q.** What about the “SI Caco-2 (selectivity index, cancer versus NHDF)” value [4] of the same compound?
**A.** 1.8

**Q.** What about the “cell viability percentage in relation with control, Caco-2” value [4] of the same compound?
**A.** 3.01 ± 0.74%

**Q.** What about the “cell viability percentage in relation with control, MCF-7” value [5] of the same compound?
**A.** 2.26 ± 0.82%

**Q.** What about the “cell viability percentage in relation with control, PC-3” value [6, 8] of the same compound?
**A.** 1.18 ± 0.36%

**Q.** Which viability at 72 h, 10 µM [1] does the source give for `CCN1C(=CC=Cc2oc3ccccc3[n+]2CC)Oc2ccccc21` [Dye 15, 3-Ethyl-2-(3-(3-ethylbenzo[d]oxazol-2(3H)-ylidene)prop-1-en-1-yl)benzo[d]oxazol-3-ium iodide] here?
**A.** 3.72 ± 0.23%

**Q.** And the IC50 ([2]; Homo sapiens, NHDF, 72 h)?
**A.** 4020 nM

**Q.** What about the selectivity ratio at 72 h [3] of the same compound?
**A.** 10.4

**Q.** And the IC50 ([4]; Homo sapiens, Caco-2, 72 h)?
**A.** 390 nM

**Q.** What about the viability at 10 µM ([4]; Homo sapiens, Caco-2, 72 h) of the same compound?
**A.** 8.58 ± 0.92%

**Q.** And the viability at 10 µM ([5]; MCF7, 72 h)?
**A.** 6.03 ± 0.77%

**Q.** And the viability at 10 µM [6, 7]?
**A.** 13.3 ± 1.9%

**Q.** With `CC1(C)C(=CC=C2CCCC(C=CC3=[N+](CCCCS(=O)(=O)O)c4ccccc4C3(C)C)=C2Cl)N(CCCCS(=O)(=O)O)c2ccccc21` [Dye 19, 2-(2-(2-Chloro-3-(2-(3,3-dimethyl-1-(4-sulfobutyl)indolin-2-ylidene)ethylidene)cyclohex-1-en-1-yl)vinyl)-3,3-dimethyl-1-(4-sulfobutyl)-3H-indol-1-ium iodide] as the compound, how does the viability at 72 h, 10 µM [1] read?
**A.** 42 ± 1.76%

**Q.** What about the viability at 10 µM ([4]; Homo sapiens, Caco-2, 72 h) of the same compound?
**A.** 57.4 ± 1.75%

**Q.** What about the viability at 10 µM ([5]; MCF7, 72 h) of the same compound?
**A.** 94.4 ± 7.99%

**Q.** What about the viability at 10 µM [6, 7] of the same compound?
**A.** 51.1 ± 5.32%

**Q.** For `CN1/C(=C/c2sc3ccccc3[n+]2C)Sc2ccccc21` [Dye 2, Methyl-2-((3-methylbenzo[d]thiazol-2(3H)-ylidene)methyl)benzo[d]thiazol-3-ium chloride], which viability at 72 h, 10 µM [1] is on record?
**A.** 5.64 ± 1.15%

**Q.** What about the IC50 ([2]; Homo sapiens, NHDF, 72 h) of the same compound?
**A.** 770 nM

**Q.** What about the “SI Caco-2 (selectivity index, cancer versus NHDF)” value [4] of the same compound?
**A.** 1.2

**Q.** What about the IC50 ([4]; Homo sapiens, Caco-2, 72 h) of the same compound?
**A.** 650 nM

**Q.** What about the viability at 10 µM ([4]; Homo sapiens, Caco-2, 72 h) of the same compound?
**A.** 2.18 ± 0.64%

**Q.** And the viability at 10 µM ([5]; MCF7, 72 h)?
**A.** 0.85 ± 0.34%

**Q.** And the viability at 10 µM [6, 7]?
**A.** 1.29 ± 0.24%

**Q.** With `CCCCCCCCCCN1C(=CC=C2CCCC(C=Cc3[se]c4ccccc4[n+]3CCCCCCCCCC)=C2Cl)[Se]c2ccccc21.[I-]` [Dye 18, 2-(2-(2-Chloro-3-(2-(3-decylbenzo[d][1,3]selenazol-2(3H)-ylidene)ethylidene)cyclohex-1-en-1-yl)vinyl)-3-decylbenzo[d][1,3]selenazol-3-ium iodide] as the compound, how does the viability at 72 h, 10 µM [1] read?
**A.** 36.6 ± 1.75%

**Q.** And the viability at 10 µM ([4]; Homo sapiens, Caco-2)?
**A.** 47.2 ± 5.29%

**Q.** And the viability at 10 µM ([5]; MCF7)?
**A.** 51.8 ± 10.1%

**Q.** What about the viability at 10 µM ([6]; Homo sapiens; single concentration of 10 µM, 72 h, mean ± SD; read-out: cell viability percentage in relation with control, PC-3) of the same compound?
**A.** 28.4 ± 7.73%

**Q.** What about the melting point of the same compound?
**A.** 221 to 224 °C
